“Also recorded” adds a separate entry of the source. Where two headings read alike, the source gives them in different places.
Assays:
SARS-CoV-2 [1] = type: cell-based
SARS-CoV-2 [2] = assay: Cell-based antiviral drug testing in Vero-E6 cells; conditions: for antiviral activity (in words): top 9 screened compounds, Vero-E6, percent inhibition, SRB assay

Row | Structure (SMILES) | inhibition of viral particle production (in words) (SARS-CoV-2 [1]) | reduction of infectious virus production (SARS-CoV-2 [1]) | antiviral activity (in words) (SARS-CoV-2 [2]) | inhibition of viral particle production (in words) (SARS-CoV-2 [1]; listed as darglitazone sodium) | EC50 (SARS-CoV-2 [2]) [µM]
1 | CNC(=O)c1ccc(-c2cnc3ncc(Cc4ccc5ncccc5c4)n3n2)cc1F [INCB28060] | inhibit production of SARS-CoV-2; also recorded: greater anti-SARS-CoV-2 activity | over 3 orders of magnitude | best antiviral activity; also recorded: substantial antiviral activity | – | –
2 | C/C=C(/C)C(=O)OC(C)(C)[C@@H]1Cc2c(ccc3ccc(=O)oc23)O1 [Columbianadin] | inhibit production of SARS-CoV-2 | – | substantial antiviral activity | – | –
3 | Cc1oc(-c2ccccc2)nc1CCC(=O)c1ccc(CC2SC(=O)NC2=O)cc1 (stereo not shown) [Darglitazone Sodium] | greater anti-SARS-CoV-2 activity | over 3 orders of magnitude | substantial antiviral activity | inhibit production of SARS-CoV-2 | < 10
